We go through eight compounds from patent US20240131046A1, “ANTI-VIRAL AGENT” (NATIONAL UNIVERSITY CORPORATION HOKKAIDO UNIVERSITY, priority 2021, published 2024).

For data set [1], the system named is HCoV-OC43.
Data set [2] relates to HCoV-229E.
Data set [3] in a line: Cytotoxicity CC50 (Table 1). It counts as cell-based, human. The settings on record: human, MRC5 cells. The procedure: (§1) In the following tests, culture-cell strain MRC5 cells from the lungs of a human fetus or culture-cell strain Caco-2 cells from a human colon carcinoma were infected using the viruses. For both cell types, 2% FBS/MEM was used as a culture medium. The 2% FBS/MEM was prepared by adding 2% FBS (fetal bovine serum; made by Gibco) and L-glutamine (made by Wako) to MEM (Minimum Essential Medium; made by Nissui).
(§2) Moreover, from values of EC50 and CC50, SI (CC50/EC50) was calculated.

Data set [4] has as its system HCoV-OC43. Description: Cell-death suppression effect in coronavirus-infected cells (resazurin). The following applies: for EC50: read-out: HCoV-0C43 EC50 (50% cell death inhibition concentration). A general note: Resazurin is reduced to fluorescent resorufin, in cell work by metabolically active cells.
The test system of data set [5] is HCoV-229E. The description is as above. The settings on record: for EC50: read-out: HCoV-229E EC50 (50% cell death inhibition concentration).
The test system of another data set is MRC5 cells. Nature of the data set: Cytotoxicity CC50 (Table 1). It counts as cell-based, human. The procedure: as §1, §2
Data set [6] relates to YFV. The settings on record: non-patent literature 5; read-out: antiviral activity (EC50) against YFV; cited from earlier work.
The test system of the next data set is DENV2. Nature of the data set: microbe, parasite or virus in culture. It counts as cell-based. The following applies: Dengue virus, DENV2, 96 h; BHK-21 cells, four days, MTT.
A further data set has as its system DENV4. Description: microbe, parasite or virus in culture. It counts as cell-based. The following applies: Dengue virus, DENV4, 120 h; BHK-21 cells, five days, MTT.
The next data set deals with DENV1. Description: microbe, parasite or virus in culture. It counts as cell-based. The settings on record: Dengue virus, DENV1, 120 h; BHK-21 cells, five days, MTT.
The subject of data set [7] is SARS-CoV-2. Description: Viral-RNA replication suppression in infected Caco-2 cells (qRT-PCR). The settings on record: for EC50: Severe acute respiratory syndrome coronavirus 2, Caco-2, 48 h, read-out: SARS-CoV-2 EC50. Background: Real-time PCR tracks product formation cycle by cycle.
The next data set has as its system WNV. Nature of the data set: microbe, parasite or virus in culture. It is filed as cell-based. The settings on record: West Nile virus, 72 h; BHK-21 cells, three days, MTT.
Another data set relates to JEV. Nature of the data set: microbe, parasite or virus in culture. It counts as cell-based. The following applies: Japanese encephalitis virus, 72 h; BHK-21 cells, three days, MTT.
In another data set the test system is DENV3. Description: microbe, parasite or virus in culture. The settings on record: Dengue virus, DENV3, 120 h; BHK-21 cells, five days, MTT. It is filed as cell-based.
Another data set concerns HCoV-229E and HCoV-OC43. Description: Library screening for suppression of cell death of cells infected by a human coronavirus. It is filed as cell-based. As to the method: HCoV-229E (ATCC: VR-740) and HCoV-OC43 (ATCC: VR-1558) obtained from the ATCC were used as coronaviruses that routinely infect humans (human coronaviruses: HCoV).
as §1
HCoV-229E and HCoV-OC43 were used as the human coronavirus.

The test system of the next data set is ZIKV. Nature of the data set: microbe, parasite or virus in culture. It counts as cell-based. The settings on record: Zika virus, 72 h; BHK-21 cells, three days, MTT.
The test system of a further data set is Caco-2 cells. The following applies: for cytotoxicity by microscopic observation: Caco-2 cells infected with SARS-CoV-2; for concentration at which mild cytotoxicity, not to an extent of cell extinction, was observed: human.
Data set [8] concerns SARS-CoV-2. Nature of the data set: Time-of-addition test in infected Caco-2 cells (viral RNA, TCID50 titration). The settings on record: 1 μM, treatment timing Whole and Post-Entry. It is filed as cell-based.
Data set [9] relates to YFV. Description: microbe, parasite or virus in culture. It is filed as cell-based. The settings on record: Yellow fever virus, BHK-21, 72 h, read-out: EC50 YFV.

Where two headings read alike, the source gives them in different places.

In the case of `CCC(CC)COC(=O)[C@H](C)N[P@](=O)(OC[C@H]1O[C@@](C#N)(c2ccc3c(N)ncnn23)[C@H](O)[C@@H]1O)Oc1ccccc1` [GS-5734, remdesivir, reference compound], the “HCoV-0C43 SI (CC50/EC50)” value in the data set on HCoV-OC43 [1] is listed as above 221.1. Besides, the “HCoV-229E SI (CC50/EC50)” value with HCoV-229E [2] was above 694.1. Besides, in data set [3] (read-out: CC50), the CC50 is above 50 µM. Besides, the EC50 is 0.23 µM with HCoV-OC43 [4] (Betacoronavirus 1, OC43, 72 h) and 0.072 µM in the data set with HCoV-229E [5] (Human coronavirus 229E, 72 h).

In turn, `N#C[C@@]1(c2ccc3c(N)ncnn23)O[C@H](CO)[C@@H](O)[C@H]1O` [GS-441524, reference compound] had a CC50 in the data set with MRC5 cells above 50 µM. Moreover, the EC50 was 11 µM with YFV [6]; 3.7 µM with HCoV-OC43 [4] (cultured three days, resazurin); 3.1 µM in the data set with HCoV-229E [5] (cultured three days, resazurin).

`Nc1ncnc2c1c(/C=N\O)cn2[C@@H]1O[C@H](CO)[C@@H](O)[C@H]1O` [HUP1069, 5-formyltubercidin oxime]: in the data set on HCoV-OC43 [1], the “HCoV-0C43 SI (CC50/EC50)” value amounted to 13. Besides, the EC50 is below 0.125 µM in the data set on DENV2; above 16 µM with DENV4; above 16 µM with DENV1; 0.2 µM in the data set with SARS-CoV-2 [7]; below 0.13 µM in the data set on WNV; below 0.13 µM with JEV. Also, the EC50 is above 16 µM in the data set with DENV3; 0.055 µM with HCoV-OC43 [4] (Betacoronavirus 1, OC43, 72 h); below 0.078 µM in the data set with HCoV-229E [5] (Human coronavirus 229E, 72 h). In addition, the “HCoV-229E SI (CC50/EC50)” value with HCoV-229E [2] was above 9.5. For the same compound, the “antiviral activity (suppressing cell death of infected cells) in library screening” value (from here on “antiviral activity”) with HCoV-229E and HCoV-OC43 was “had antiviral activity”.

Consider `Nc1c2ccn([C@@H]3O[C@H](CO)[C@@H](O)[C@H]3O)c2nc[n+]1[O-]` [HUP1077, tubercidin N-oxide], for which the EC50 was 6.3 µM with ZIKV; 2.5 µM in the data set with DENV4; 3.2 µM in the data set on DENV1; 3.5 µM with SARS-CoV-2 [7]; 10.7 µM in the data set with WNV; 6.9 µM in the data set with JEV. In addition, the EC50 with DENV3 came to 2.3 µM; with HCoV-229E [5] (Human coronavirus 229E, 72 h) it was 4 µM. For the same compound, the “cytotoxicity by microscopic observation” value in the data set with Caco-2 cells is given as “concerns regarding cytotoxicity were low”. Also, the “HCoV-0C43 SI (CC50/EC50)” value in the data set on HCoV-OC43 [4] was 5.6. In the data set on HCoV-229E [5], the “HCoV-229E SI (CC50/EC50)” value amounted to 6.1. In addition, in the data set with HCoV-229E and HCoV-OC43 (HCoV-229E and HCoV-OC43), the “antiviral activity” value is “had antiviral activity”.

For the compound `Nc1ncnc2c1c([N+](=O)[O-])cn2[C@@H]1O[C@H](CO)[C@@H](O)[C@H]1O` [HUP1078, 5-nitrotubercidin], the EC50 in the data set on DENV2 was above 20 µM; in the data set with SARS-CoV-2 [7] it was 0.1 µM; in the data set with HCoV-OC43 [4] (Betacoronavirus 1, OC43, 72 h), above 10 µM; in the data set with HCoV-229E [5] (Human coronavirus 229E, 72 h), 2 µM. It took 0.33 µM to reach half-maximal cytotoxicity in [3] (CC50). Besides, the “concentration at which mild cytotoxicity, not to an extent of cell extinction, was observed” value with Caco-2 cells was at least 123 nM. Moreover, in the data set with HCoV-229E [5], the “HCoV-229E SI (CC50/EC50)” value is listed as 0.17. Also, in the data set on HCoV-229E and HCoV-OC43 (HCoV-229E and HCoV-OC43), the “antiviral activity” value was “had antiviral activity”.

For the compound `Nc1ncnc2c1c(CO)cn2[C@@H]1O[C@H](CO)[C@@H](O)[C@H]1O` [HUP1108, 5-hydroxymethyltubercidin], the “concentration range in which virus proliferation was suppressed without cytotoxicity” value in the data set on SARS-CoV-2 [7] (Caco-2 cells) is reported as “lower than 3.33 μM”. Also, the EC50 in the data set with SARS-CoV-2 [7] worked out at 0.57 µM. For the same compound, the “relative viral-RNA amount” value in the data set with SARS-CoV-2 [8] (Caco-2 cells, 24 hours, FIG. 3) is “reduced”. Also, the “viral titer (TCID50)” value with SARS-CoV-2 [8] (supernatant titrated on VeroE6/TMPRSS2 cells, FIG. 4) is listed as “reduced”. This compound also displayed a CC50 in data set [3] above 50 µM. Also, in the data set with Caco-2 cells, the “cytotoxicity by microscopic observation” value is on record as “concerns regarding cytotoxicity were low” and the “concentration at which mild cytotoxicity, not to an extent of cell extinction, was observed” value worked out at 10000 nM. Further, the “HCoV-0C43 SI (CC50/EC50)” value with HCoV-OC43 [4] was above 141. The EC50 in the data set on HCoV-OC43 [4] (Betacoronavirus 1, OC43, 72 h) amounted to 0.35 µM. For the same compound, in the data set with HCoV-229E [5], the “HCoV-229E SI (CC50/EC50)” value is given as above 117. In addition, in the data set on HCoV-229E and HCoV-OC43 (HCoV-229E and HCoV-OC43), the “antiviral activity” value was “had antiviral activity”.

In the case of `N#Cc1cn([C@@H]2O[C@H](CO)[C@@H](O)[C@H]2O)c2ncnc(N)c12` [HUP1109, 5-cyanotubercidin], the EC50 in the data set on DENV2 is above 20 µM; in the data set with SARS-CoV-2 [7] it was 0.2 µM; in the data set with HCoV-OC43 [4] (Betacoronavirus 1, OC43, 72 h), above 10 µM; with HCoV-229E [5] (Human coronavirus 229E, 72 h), 2.3 µM. The “HCoV-229E SI (CC50/EC50)” value in the data set with HCoV-229E [2] was determined as 0.26. Also, in data set [3], the CC50 stood at 0.59 µM. The “cytotoxicity by microscopic observation” value in the data set with Caco-2 cells was “strong cytotoxicity”. For the same compound, in the data set on HCoV-229E and HCoV-OC43, the “antiviral activity” value was “had antiviral activity”.

Consider `Nc1ncnc2c1ccn2[C@@H]1O[C@H](CO)[C@@H](O)[C@H]1O` [HUP1136, tubercidin], for which the “HCoV-0C43 SI (CC50/EC50)” value with HCoV-OC43 [1] turned out to be 5.9. For the same compound, the EC50 is 0.15 µM in the data set on YFV [9]; above 16 µM with DENV4; above 16 µM in the data set with DENV1; 0.087 µM in the data set with SARS-CoV-2 [7]; 0.2 µM in the data set on WNV; below 0.13 µM in the data set on JEV. The EC50 is below 0.125 µM in the data set on DENV3 and below 0.078 µM in the data set with HCoV-229E [5] (Human coronavirus 229E, 72 h). Also, in the data set with HCoV-229E [2], the “HCoV-229E SI (CC50/EC50)” value is reported as above 8.5. Also, the “concentration at which mild cytotoxicity, not to an extent of cell extinction, was observed” value with Caco-2 cells was at least 1110 nM. The “antiviral activity” value in the data set with HCoV-229E and HCoV-OC43 is listed as “had antiviral activity”.

One may read the CC50 as the concentration that lowers cell viability or growth by half.
